Measurements: US4562191A (priority 1983, dated 1985)
Values joined by “and” are separate entries in the source; they are usually repeats but may differ in a detail not shown here. Equal values may be shown once.

Test system: Male CD-1 albino mice
Parameters: species or system mouse (CD-1 albino)
Details: mouse, in vivo

SMILES	Mean number of contortions ± S.D.	No. of animals exhibiting contortions out of total
CC(=O)Oc1ccccc1C(=O)O [Acetyl-salicylic acid, acetylsalicylic acid]	13.5 ± 11.1	4/6
CCC(=O)O[C@](Cc1ccccc1)(c1ccccc1)[C@H](C)CN(C)C [D-propoxyphene]	2.5 ± 2.1	2/6
CCCCC1C(=O)N(c2ccccc2)N(c2ccccc2)C1=O [Phenylbutazone]		3/6 and 5/6
